Converted amounts (≈) assume the structure as drawn. Read-outs that look alike come from different tables or passages of the source.
How the values were obtained:
Hep-3B cells = assay: PTX anti-proliferative activity on Hep-3B cells in culture; assay type: cell-based, human
Protocol: In (A) PTX at different concentration from 0.1 to 1000 ng/ml was added to cultured Hep-3B cells After 72 hours of incubation cells were detached and counted. […] In (B) photographs (10× magnification) of Hep-3B cultured in presence of PTX showing its potent growth inhibition at concentration up to 25 ng/ml are reported.
To this end, different concentration of PTX (from 0.1 ng/ml to 1000 ng/ml) were added to culture medium.

Hep-3B tumor = assay: In vivo anti-tumor activity, single-shot local injection next to sc Hep-3B tumor
Protocol: Five-week-old athymic nude-Foxn1nu mice were purchased from Envigo (Envigo, Bresso, Italy) and were housed under pathogen-free conditions. Experiments were reviewed and approved by the licensing and ethical committee of IZSLER (Istituto Zooprofilattico Sperimentale della Lombardia e dell'Emilia Romagna, Brescia, Italy) and by the Italian Ministry of Health.
In a preliminary experiment, 3 mice were injected subcutaneously (s.c.) with 5×10^6 Hep-3B cells in 100 ul of MTG in the right flank. Mice were observed daily to establish the day of tumor appearance and when the nodule was 1 cm in diameter, mice were sacrificed and tumor was removed and investigated to verify the HCC features by histological examination. […] In the first series of experiments, mice (n=6/group) were injected with 5×10^6 Hep-3B cells in the right flank (day 0). The tumors were allowed to grow to an average 0.5/0.7 cm in diameter corresponding to a tumor volume ranging from 65 to 179 mm^3 (median weight 120 mg) that were calculated using the formula 1/6πd^3 (13). […] Loading of PTX into just thawed DMFAT specimens were performed 20-30 minutes before injection as described above, adding 1 mg of PTX (around 166 μl of the stock PTX solution 6 mg/ml) to 1 ml of DMFAT and agitation. […] According to the ethical protocol, all the mice were sacrificed when the tumor nodule reached 2.0-2.5 cm in diameter (≥2 g of weight) or, whatever the diameter, sacrificed on day 60 after the transplant. […] Animals were euthanized with carbon dioxide inhalation, followed by cervical dislocation.

MIB-1/Ki67 = assay: Immunohistochemistry of proliferation marker MIB-1/Ki67 in Hep-3B tumor of treated mice; assay type: in vivo, athymic nude-Foxn1nu mice; conditions: DMFAT-PTX at both dosages; free PTX 10 mg/kg
Protocol: After evaluation of conventional H&E stained, ten white sections were then obtained from each sample to be processed for immunohistochemical (IHC) staining. IHC was carried out automatically by means of Leica Bond MaxTM technology (Arginase, CK-PAN, CK7 and ANTI-EPATO) and Ventana Bench Mark Ultra (Ki-67): ANTI-HEPATO: antigen retrieval 30' EDTA, (dil. 1:300 clone […] Dako-Agilent); […] antigen retrieval 30' EDTA, (dil. 1:100 Clone SP156 Cell Marque […]. clone 30-9 Roche-Ventana); CK-PAN: antigen retrieval 5' Enzyma, (dil. 1:200 clone MNF116 Dako Agilent); CK-7: antigen retrieval 15' EDTA, dil. 1:100 clone OV-TL 12/20 Dako Agilent. All section stained was evaluated on NIKON ECLIPSE E 600 Microscopy equipped with OLYMPUS DP21 Camera.

CC(=O)O[C@H]1C(=O)[C@@]2(C)[C@H]([C@H](OC(=O)c3ccccc3)[C@]3(O)C[C@H](OC(=O)[C@H](O)[C@@H](NC(=O)c4ccccc4)c4ccccc4)C(C)=C1C3(C)C)[C@]1(OC(C)=O)CO[C@@H]1C[C@@H]2O [PTX, Paclitaxel]
IC50, dose of PTX required to reduce 50% Hep-3B growth (Hep-3B cells; 72 hours of incubation, cells detached and counted): 0.015 ± 0.003 µg/mL
IC50 (Hep-3B cells; Homo sapiens, Hep3B, read-out: IC50, dose of PTX required to reduce 50% Hep-3B growth, 72 hours of incubation, cells detached and counted): 0.015 ± 0.002 µg/mL (≈ 0.0176 µM)
IC90 (Hep-3B cells; Homo sapiens, Hep3B, read-out: IC90, dose of PTX required to reduce 90% Hep-3B growth, 72 hours of incubation, cells detached and counted): 0.025 ± 0.008 µg/mL (≈ 0.0293 µM)
IC50 (Hep-3B cells; Homo sapiens, Hep3B, restated for comparison with tissue concentrations, read-out: IC50 of the PTX on Hep-3B cells): 0.015 µg/mL (≈ 0.0176 µM)
Skin lesions / ulceration at the site of injection (Hep-3B tumor; 10 mg/kg (200 μg/200 μl), local sc injection): did not induce skin ulcers
Effect on tumor growth compared to CTRL (Hep-3B tumor; series A: 200 μl, PTX 10 mg/kg where present): No significant effect
% of mice cured (Hep-3B tumor; series A: PTX 200 μg (10 mg/kg) where present, tumor-free after 90 days): 0%
Day of sacrifice (Hep-3B tumor; series A: single shot 200 μl, PTX 200 μg (10 mg/kg) where present): 33 ± 3
% of mice tumor-free (Hep-3B tumor; series A: single shot 200 μl, PTX 200 μg (10 mg/kg) where present, at 60 days): 0%
HCC (TW) (Grams ± SD) (Hep-3B tumor; series A: single shot 200 μl, PTX 200 μg (10 mg/kg) where present, tumor weight at sacrifice): 2.010 ± 0.377 Grams
Ki67 expression in tumor (MIB-1/Ki67): Some reduction
